Data reported in patent US20060094755A1, “Novel quinoline-based metal chelators as antiviral agents” (Bioflexis, LLC, priority 2004, published 2006).

What was measured:
IN (integrase) = molecular target: T1, IN (integrase) (Human immunodeficiency virus type 1 group M subtype B, UniProt P12497); conditions: cited from earlier work
T1 construct: HIV-1 recombinant IN (HIV-1NL4-3 Integrase, NIH AIDS Reagent program Catalog No:2959); purchased NIH AIDS Reagent program 2959

HIV = conditions: ex-vivo viral inhibition assay; cited from earlier work
HIV-1 MC99IIIBΔTat-Rev = assay: viral inhibition assay (p24 ELISA, CEM-TART cells), FIG. 4; format: cell-based; conditions: Human immunodeficiency virus 1
Description: The novel compounds of the present invention can be further evaluated for their ability to inhibit viral replication in ex-vivo assays. Most common of these include determining the viral replication in either purified human CD4+ T cell blasts infected with HIV in the presence or absence of various concentrations of inhibitors or HIV infected MT4 cell line treated with different concentration of inhibitors. A standard laboratory method in screening for inhibitors against HIV in biological assays involves the use of recombinant HIV strain that can replicate only in the supporting complementing cell line. This model system allows the examination of HIV viral replication in a biologically contained manner and is suitable for inhibitor screening. The method is described briefly below. The recombinant HIV-1 strain (HIV-1 MC99IIIBΔTat-Rev; NIH Aids Reagent Program, catalog No: 1943) is genetically engineered to replicate only in supporting recombinant cell lines (CEM-TART Cells, NIH Aids Reagent Program catalog No 1944). The construction of the recombinant mutant virus, the supporting cell line and the biological assay are described in detail elsewhere. […] The extent of viral replication can be determined by measuring the soluble viral p24 protein present in the culture supernatant collected at 24, 48, 72 and 96-hr post infection using commercial ELISA kits.

| SMILES | inhibition of 3′ processing (IN (integrase)) | inhibition of strand transfer reaction (IN (integrase)) | EC50 (HIV) | IC50 (HIV-1 MC99IIIBΔTat-Rev) |
| --- | --- | --- | --- | --- |
| O=C(O)C(=O)CC(=O)c1cc(OCc2ccccc2)cc(OCc2ccccc2)c1 [Compound 6] | do not inhibit 3′ processing | inhibit strand transfer reaction |  |  |
| O=C(O)C(=O)CC(=O)c1cccn1Cc1ccc(F)cc1 [Compound 8] | do not inhibit 3′ processing | inhibit strand transfer reaction |  |  |
| O=C(/C=C(\O)c1nn[nH]n1)c1c[nH]c2ccc(Cl)cc12 [Compound 10] | inhibit both reactions | inhibit both reactions | 0.7 µM |  |
| O=C(O)CN(CCN(CCN(CC(=O)O)CC(=O)O)Cc1ccc2cccc(O)c2n1)CC(=O)O [Compound 16] |  |  |  | 19.3 µM |
